Among the data in the Kinase Knowledgebase extract (Sharma et al. 2016) are IC50 values, retold here.

The target of the test is PIK3CA (human) (UniProt P42336). The experiment in a line: Inhibition of PIK3CA Kinase Activity.
Chain of PIK3CA (human) (P42336 whole entry, looked up): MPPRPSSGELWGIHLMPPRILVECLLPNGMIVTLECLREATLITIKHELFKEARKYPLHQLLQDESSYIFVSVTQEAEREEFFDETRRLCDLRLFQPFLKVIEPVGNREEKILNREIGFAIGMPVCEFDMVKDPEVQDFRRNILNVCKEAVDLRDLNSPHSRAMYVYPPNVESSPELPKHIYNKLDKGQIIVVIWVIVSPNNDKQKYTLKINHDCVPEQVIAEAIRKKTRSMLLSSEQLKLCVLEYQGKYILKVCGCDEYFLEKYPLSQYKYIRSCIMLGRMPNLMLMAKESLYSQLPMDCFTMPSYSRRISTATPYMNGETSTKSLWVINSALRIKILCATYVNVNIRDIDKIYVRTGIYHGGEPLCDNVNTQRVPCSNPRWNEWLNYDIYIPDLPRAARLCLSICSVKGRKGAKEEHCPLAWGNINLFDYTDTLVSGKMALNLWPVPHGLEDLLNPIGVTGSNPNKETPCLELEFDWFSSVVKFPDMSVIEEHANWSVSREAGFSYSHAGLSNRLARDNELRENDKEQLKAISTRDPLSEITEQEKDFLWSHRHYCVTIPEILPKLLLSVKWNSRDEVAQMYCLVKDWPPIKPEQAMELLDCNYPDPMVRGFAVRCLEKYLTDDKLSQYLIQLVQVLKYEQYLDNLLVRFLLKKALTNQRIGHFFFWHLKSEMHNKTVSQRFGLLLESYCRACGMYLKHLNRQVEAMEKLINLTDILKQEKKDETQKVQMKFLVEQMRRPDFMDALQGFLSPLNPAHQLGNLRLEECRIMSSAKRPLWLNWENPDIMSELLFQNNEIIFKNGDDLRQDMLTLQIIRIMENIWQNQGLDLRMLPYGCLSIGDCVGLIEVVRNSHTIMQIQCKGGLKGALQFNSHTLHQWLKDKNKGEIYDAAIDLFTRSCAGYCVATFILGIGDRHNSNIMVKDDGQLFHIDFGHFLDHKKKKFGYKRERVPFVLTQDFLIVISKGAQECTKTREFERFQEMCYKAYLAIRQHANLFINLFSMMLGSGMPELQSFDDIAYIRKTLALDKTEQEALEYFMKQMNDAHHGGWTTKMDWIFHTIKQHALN
The molecule `CCS(=O)(=O)c1cc(-c2ccc3c(c2)CN(c2ncnc4c2CC(C)(C)CC4)CCO3)cnc1N` had an IC50 of 0.01 to 0.05 µM.

For `CN1CC[C@@H](NS(=O)(=O)c2cc(-c3ccc4c(c3)CN(c3ncnc5c3CC(C)(C)CC5)CCO4)cnc2N)C1`, the IC50 lay within 0.05 to 0.25 µM.

Regarding `COc1c(OCCN(C)C)ccc2c(N3CCOc4ccc(-c5ccc6nc(C)[nH]c6c5)cc4C3)ncnc12`, the concentration for half-maximal inhibition (IC50) was in the range of 0.25 to 1 µM.

In the case of `COc1c(OCC2CC2)ccc2c(N3CCOc4ccc(-c5ccc6nc(C)[nH]c6c5)cc4C3)ncnc12`, the IC50 was 0.01 to 0.05 µM.

As for `Cc1nc(N2CCOc3ccc(-c4ccc5nc(C)[nH]c5c4)cc3C2)c2ccccc2n1`, the IC50 fell in the range of 0.01 to 0.05 µM.

In the case of `CCc1c(C)nc(CN(C)C)nc1N1CCOc2ccc(-c3ccc4[nH]c(C)nc4c3)cc2C1`, the IC50 was 0.01 to 0.05 µM.

In the case of `Cc1nc2cc(-c3ccc4c(c3)CN(c3ncnc5c3CC3(CC5)CC3)CCO4)cnc2[nH]1`, the IC50 lay in the range of 0.01 to 0.05 µM.

On to `COc1cc2ncnc(N3CCOc4ccc(-c5ccc6nc(C)[nH]c6c5)cc4C3)c2cc1I`, for which the IC50 lay within 0.01 to 0.05 µM.

As for `Cc1nc2ncc(-c3ccc4c(c3)CN(c3nc(-c5ccccn5)nc5c3CC(C)(C)CC5)CCO4)cc2[nH]1`, the IC50 lay within 0.05 to 0.25 µM.

The molecule `Cc1ncnc(N2CCOc3ccc(-c4ccc5nc(N)nn5c4)cc3C2)c1Cc1ccc(F)cc1` registered an IC50 of 0.05 to 0.25 µM.

In the case of `Cc1nc2ncc(-c3ccc4c(c3)CN(c3nc(CNCC(F)F)nc5c3CC(C)(C)CC5)CCO4)cc2[nH]1`, the IC50 lay in the range of 0.01 to 0.05 µM.

`Cc1nc2ncc(-c3ccc4c(c3)CN(c3ncnc(C)c3C)CCO4)cc2[nH]1` displayed an IC50 of 0.05 to 0.25 µM.

Take `CCCc1c(C)nc(CN(C)C)nc1N1CCOc2ccc(-c3cnc4sc(N)nc4c3)cc2C1`: the half-maximal inhibitory concentration (IC50) was no more than 0.01 µM.

The molecule `CC[C@H]1CCc2c(ncnc2N2CCOc3ccc(-c4cnc5nc([C@H](C)N)[nH]c5c4)cc3C2)C1` registered an IC50 of 0.05 to 0.25 µM.

Consider `CC1(C)CCc2ncnc(N3CCOc4ccc(-c5cnc6nc(N)[nH]c6c5)cc4C3)c2C1`, for which the IC50 is no more than 0.01 µM.

In turn, `CC1(C)CCc2ncnc(N3CCOc4ccc(-c5cnc(N)c(S(=O)(=O)N6CCC(C)(N)C6)c5)cc4C3)c2C1` (stereo not drawn) had an IC50 of 0.01 to 0.05 µM.

Take `CC1(C)CCc2ncnc(N3CCOc4ccc(-c5cnc(N)c(S(=O)(=O)N6CCOCC6)c5)cc4C3)c2C1`: the IC50 was 0.05 to 0.25 µM.

Molecule `CC(C)(N)CCNS(=O)(=O)c1cc(-c2ccc3c(c2)CN(c2ncnc4c2CC(C)(C)CC4)CCO3)cnc1N` had a half-maximal inhibitory concentration (IC50) of 0.01 to 0.05 µM.

Take `Cc1nc2ncc(-c3ccc4c(c3)CN(c3nc(CN(C)C)nc5ccc(F)cc35)CCO4)cc2[nH]1`: the IC50 lay within 0.01 to 0.05 µM.

For the molecule `CCNS(=O)(=O)c1cc(-c2ccc3c(c2)CN(c2ncnc4c2CC(C)(C)CC4)CCO3)cnc1N`, the IC50 lay within 0.01 to 0.05 µM.

Take `Cc1c(NCCC2CCCN2C)ncnc1N1CCOc2ccc(-c3cnc4nc(C5CC5)[nH]c4c3)cc2C1` (stereo not drawn): the IC50 is 0.05 to 0.25 µM.

`Cc1ncnc(N2CCOc3ccc(-c4cnc5sc(N)nc5c4)cc3C2)c1Cc1ccc(F)cc1` had a concentration for half-maximal inhibition (IC50) of no more than 0.01 µM.

`CCC1CCc2ncnc(N3CCOc4ccc(-c5cnc6nc(N)[nH]c6c5)cc4C3)c2C1` (stereo not drawn) came in with an IC50 of no more than 0.01 µM.

As for `Cc1nc2ncc(-c3ccc4c(c3)CN(c3nc(CNCCF)nc5c3CC(C)(C)CC5)CCO4)cc2[nH]1`, the IC50 fell in the range of 0.01 to 0.05 µM.

Molecule `Cc1nc2ccc(-c3ccc4c(c3)CN(c3ncnc5cc(S(C)(=O)=O)ccc35)CCO4)cc2[nH]1` had an IC50 of 0.05 to 0.25 µM.

For the molecule `CCC1CCc2nc(C)nc(N3CCOc4ccc(-c5cnc6nc(C)[nH]c6c5)cc4C3)c2C1` (stereo not drawn), the IC50 fell in the range of 0.01 to 0.05 µM.

In turn, `CCNc1nc2ccc(-c3ccc4c(c3)CN(c3ccncn3)CCO4)cc2[nH]1` showed an IC50 of 0.25 to 1 µM.

On to `COC(=O)Nc1nc2ccc(-c3ccc4c(c3)CN(c3ncnc5c3CC(C)(C)CC5)CCO4)cc2[nH]1`, for which the IC50 was in the range of 0.01 to 0.05 µM.

Turning to `Cc1ccc2ncnc(N3CCOc4ccc(-c5ccc6nc(C)[nH]c6c5)cc4C3)c2c1`, the IC50 lay within 0.01 to 0.05 µM.

Molecule `Cc1nc2ncc(-c3ccc4c(c3)CN(c3ncncc3C)CCO4)cc2[nH]1` displayed an IC50 of 0.25 to 1 µM.

The molecule `CCNc1nc2ccc(-c3ccc4c(c3)CN(c3cc(C)nc5ccccc35)CCO4)cc2[nH]1` came in with an IC50 of no more than 0.01 µM.

With `CC1(C)CCc2nc(CO)nc(N3CCOc4ccc(-c5cnc6sc(N)nc6c5)cc4C3)c2C1`, the IC50 is no more than 0.01 µM.

Molecule `Cc1nc2ncc(-c3ccc4c(c3)CN(c3ncnc(N5CCN(C)CC5)c3C)CCO4)cc2[nH]1` gave an IC50 of 0.05 to 0.25 µM.

`CC(=O)OCc1nc(C)c(Cc2ccc(F)cc2)c(N2CCOc3ccc(-c4ccc5[nH]c(C)nc5c4)cc3C2)n1` displayed an IC50 of 0.01 to 0.05 µM.

The molecule `Cc1nc(CN(C)C)nc(N2CCOc3ccc(-c4ccc5[nH]c(C(F)F)nc5c4)cc3C2)c1C(C)C` gave an IC50 of 0.01 to 0.05 µM.

Take `COC(=O)Nc1nc2ncc(-c3ccc4c(c3)CN(c3ncnc(C)c3Cc3ccc(F)cc3)CCO4)cc2[nH]1`: the IC50 was no more than 0.01 µM.

The molecule `COc1ccc2c(N3CCOc4ccc(-c5cnc6sc(NC(C)=O)nc6c5)cc4C3)nc(CN(C)C)nc2c1` yielded an IC50 of 0.01 to 0.05 µM.

The molecule `COC(=O)Nc1nc2ccc(-c3ccc4c(c3)CN(c3ncnc5ccc(OC)cc35)CCO4)cc2[nH]1` gave an IC50 of 0.01 to 0.05 µM.

For the molecule `CC1(C)CCc2ncnc(N3CCOc4ccc(-c5cnc(N)c(S(=O)(=O)NCCN)c5)cc4C3)c2C1`, the IC50 lay within 0.01 to 0.05 µM.

Turning to `Cc1nc2ccc(-c3ccc4c(c3)CN(c3ncnc(C)c3C(C)C)CCO4)cc2[nH]1`, the IC50 was 0.05 to 0.25 µM.

For `Cc1nc(CN(C)C)nc(N2CCOc3ccc(-c4cnc5sc(N)nc5c4)cc3C2)c1Br`, the IC50 was 0.01 to 0.05 µM.

The molecule `COc1ccc2ncnc(N3CCOc4ccc(-c5cnc6nc(N)[nH]c6c5)cc4C3)c2c1` gave an IC50 of no more than 0.01 µM.

As for `CC[C@H]1CCc2c(nc(C)nc2N2CCOc3ccc(-c4cnc5nc(C)[nH]c5c4)cc3C2)C1`, the concentration for half-maximal inhibition (IC50) is no more than 0.01 µM.

Turning to `Cc1ccc2c(N3CCOc4ccc(-c5ccc6nc(C)[nH]c6c5)cc4C3)ncnc2c1`, the IC50 was 0.01 to 0.05 µM.

In turn, `CC1(C)CCc2ncnc(N3CCOc4ccc(-c5cnc(Cl)c(NS(C)(=O)=O)c5)cc4C3)c2C1` showed an IC50 of no more than 0.01 µM.

`COC(=O)Nc1nc2ncc(-c3ccc4c(c3)CN(c3ncnc5c3CC(C)(C)C=C5)CCO4)cc2[nH]1` registered an IC50 of no more than 0.01 µM.

The molecule `CC1(C)CCc2ncnc(N3CCOc4ccc(-c5cnc(N)c(S(=O)(=O)NC[C@H]6C[C@H]7CNC[C@H]7C6)c5)cc4C3)c2C1` displayed an IC50 of 0.05 to 0.25 µM.

For the molecule `Cc1nc(N)nc(N2CCOc3ccc(-c4cnc5sc(N)nc5c4)cc3C2)c1Cc1ccc(F)cc1`, the IC50 was no more than 0.01 µM.

`Cc1nc2ccc(-c3ccc4c(c3)CN(c3ncnc5ccccc35)CCO4)cc2[nH]1` came in with an IC50 of 0.01 to 0.05 µM.

As for `Cc1ncnc(N2CCOc3ccc(-c4cnc(N)s4)cc3C2)c1Cc1ccc(F)cc1`, the IC50 was no more than 0.01 µM.

Consider `Cc1nc2ccc(-c3ccc4c(c3)CN(c3ccnc5cc(C#N)ccc35)CCO4)cc2[nH]1`, for which the IC50 fell in the range of 0.05 to 0.25 µM.

`Cc1ncnc(N2CCOc3ccc(-c4ccc5nc(N)[nH]c5c4)cc3C2)c1Cc1ccc(F)cc1`: the IC50 is 0.01 to 0.05 µM.

`Cc1nc2ncc(-c3ccc4c(c3)CN(c3nc(CN(C)C)nc(C)c3CC3CC3)CCO4)cc2[nH]1` registered an IC50 of no more than 0.01 µM.

`CN(C)S(=O)(=O)c1cncc(-c2ccc3c(c2)CN(c2ncnc4c2CC(C)(C)CC4)CCO3)c1` showed a 50% inhibitory concentration (IC50) of 0.05 to 0.25 µM.

For the molecule `Cc1nc2ccc(-c3ccc4c(c3)CN(c3ccnc(C)c3Cc3ccc(F)cc3)CCO4)cc2[nH]1`, the IC50 was in the range of 0.01 to 0.05 µM.

Regarding `Cc1nc2ccc(-c3ccc4c(c3)CN(c3ncnc5c(C(F)(F)F)cccc35)CCO4)cc2[nH]1`, the IC50 was 0.25 to 1 µM.

As for `CCc1nc2ccc(-c3ccc4c(c3)CN(c3ncnc5c3CC(C)(C)CC5)CCO4)cc2[nH]1`, the IC50 fell in the range of 0.05 to 0.25 µM.

The molecule `Cc1nc2ccc(-c3ccc4c(c3)CN(c3ncnc5cc(C(F)(F)F)ccc35)CCO4)cc2[nH]1` had an IC50 of 0.05 to 0.25 µM.

`CCNc1nc2ccc(-c3ccc4c(c3)CN(c3nc(C)nc(Nc5ccccc5)c3C)CCO4)cc2[nH]1` had a half-maximal inhibitory concentration (IC50) of 0.05 to 0.25 µM.

Molecule `CC1(C)CCc2ncnc(N3CCOc4ccc(-c5cnc(N)c(S(=O)(=O)NC[C@H]6CCNC6)c5)cc4C3)c2C1` came in with an IC50 of 0.01 to 0.05 µM.

As for `Cc1nc2ccc(-c3ccc4c(c3)CN(c3ncnc5cc(I)ccc35)CCO4)cc2[nH]1`, the IC50 fell in the range of 0.01 to 0.05 µM.

`COc1ccc2c(N3CCOc4ccc(-c5cnc(N)c(S(=O)(=O)C[C@@H](C)CO)c5)cc4C3)ncnc2c1` yielded an IC50 of no more than 0.01 µM.

Regarding `CCNc1nc2ccc(-c3ccc4c(c3)CN(c3nc(C)nc5cc(O)ccc35)CCO4)cc2[nH]1`, the IC50 was no more than 0.01 µM.

On to `Cc1nc2cc(-c3ccc4c(c3)CN(c3nc(C5CCCN5)nc5c3CC(C)(C)CC5)CCO4)cnc2[nH]1` (stereo not drawn), for which the IC50 lay in the range of 0.01 to 0.05 µM.

In turn, `CC1(C)CCc2ncnc(N3CCOc4ccc(-c5cnc(N)c(S(=O)(=O)NCC(O)CN)c5)cc4C3)c2C1` (stereo not drawn) yielded an IC50 of no more than 0.01 µM.

`Cc1nc2cc(-c3ccc4c(c3)CN(c3nc(CN5CCCC5)nc5c3CC(C)(C)CC5)CCO4)ccc2[nH]1` displayed a 50% inhibitory concentration (IC50) of no more than 0.01 µM.

`Cc1nc(C)c(CC2CC2)c(N2CCOc3ccc(-c4cnc5nc(C)[nH]c5c4)cc3C2)n1` showed an IC50 of 0.01 to 0.05 µM.

Turning to `Cc1nc2cc(-c3ccc4c(c3)CN(c3nc(NCCN(C)C)nc(C)c3Cc3ccc(F)cc3)CCO4)ccc2[nH]1`, the IC50 was 0.01 to 0.05 µM.

Molecule `CNS(=O)(=O)c1cc(-c2ccc3c(c2)CN(c2ncnc(C)c2Cc2ccc(F)cc2)CCO3)cnc1N` showed an IC50 of 0.05 to 0.25 µM.

With `Cc1ccc(Cc2c(C)ncnc2N2CCOc3ccc(-c4ccc5nc(C)[nH]c5c4)cc3C2)cc1`, the IC50 fell in the range of 0.05 to 0.25 µM.

`Cc1nc2ccc(-c3ccc4c(c3)CN(c3ncnc5scc(C)c35)CCO4)cc2[nH]1`: the IC50 fell in the range of 0.25 to 1 µM.

As for `CC1(C)CCc2ncnc(N3CCOc4ccc(-c5cnc6c(c5)OCCN6)cc4C3)c2C1`, the IC50 lay in the range of 0.25 to 1 µM.

On to `Nc1nc2ncc(-c3ccc4c(c3)CN(c3ncnc5ccc(Cl)cc35)CCO4)cc2[nH]1`, for which the IC50 was no more than 0.01 µM.

For `COCCNCc1nc2c(c(N3CCOc4ccc(-c5cnc6nc(C)[nH]c6c5)cc4C3)n1)CC(C)(C)CC2`, the IC50 fell in the range of 0.01 to 0.05 µM.

As to `Cc1nc2ccc(-c3ccc4c(c3)CN(c3ncnc5c(F)cccc35)CCO4)cc2[nH]1`, the IC50 lay in the range of 0.05 to 0.25 µM.

In turn, `CCNc1nc2ccc(-c3ccc4c(c3)CN(c3ccnc5cc(F)ccc35)CCO4)cc2[nH]1` showed an IC50 of no more than 0.01 µM.

Turning to `CN(C)Cc1nc2c(c(N3CCOc4ccc(-c5ccc6[nH]c(C(F)F)nc6c5)cc4C3)n1)CC(C)(C)CC2`, the IC50 lay in the range of 0.01 to 0.05 µM.

In turn, `Cc1nc2cc(-c3ccc4c(c3)CN(c3nc(C(C)N(C)C)nc5c3CC(C)(C)CC5)CCO4)cnc2[nH]1` (stereo not drawn) came in with an IC50 of 0.01 to 0.05 µM.
